# Measured values reported in patent US20080207527A1, “Bicyclic Compounds Which Inhibit Beta-Secretase Activity and Methods of Use Thereof” (CoMentis, Inc., priority 2004, published 2008).
# Experiments:
# memapsin 2 = memapsin 2 (Homo sapiens, UniProt P56817); test: Inhibition of memapsin 2 beta-secretase activity toward fluorogenic substrate FS-2; assay type: biochemical; conditions: pH 4, 37° C., 20 minutes pre-incubation, read-out: M2 Ki
# Procedure: Potency of compounds were determined by measurement of their inhibition of memapsin 2 activity toward a fluorescent substrate. […] Briefly, assays were performed at pH 4, 37° C., by pre-incubation of memapsin 2 enzyme with compound for 20 minutes. Activity measure was initiated by addition of a fluorogenic substrate FS-2 (Bachem Americas, Torrance, Calif.). Fluorescent signal increase over time was measured as a rate of hydrolysis of the peptide substrate.
# memapsin 1 = biological target: T1, memapsin 1 (Homo sapiens, UniProt Q9Y5Z0); test: Inhibition of memapsin 1 beta-secretase activity (substrate peptide hydrolysis, MALDI-TOF); assay type: biochemical; conditions: pH 4.1, 37 degrees C., read-out: M1 Ki
# T1 sequence (Q9Y5Z0 63-518): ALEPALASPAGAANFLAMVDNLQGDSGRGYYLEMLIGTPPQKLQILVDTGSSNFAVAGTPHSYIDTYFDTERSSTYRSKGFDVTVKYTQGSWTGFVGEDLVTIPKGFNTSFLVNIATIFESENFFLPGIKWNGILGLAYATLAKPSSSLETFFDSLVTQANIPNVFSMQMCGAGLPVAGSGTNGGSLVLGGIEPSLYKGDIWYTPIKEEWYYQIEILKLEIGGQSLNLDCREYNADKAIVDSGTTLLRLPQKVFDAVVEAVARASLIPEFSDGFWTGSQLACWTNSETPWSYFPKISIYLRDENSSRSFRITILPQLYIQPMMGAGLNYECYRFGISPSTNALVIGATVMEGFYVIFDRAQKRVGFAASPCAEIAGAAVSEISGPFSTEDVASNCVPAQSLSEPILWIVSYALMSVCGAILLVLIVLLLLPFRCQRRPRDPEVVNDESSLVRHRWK
# Cathepsin D = Cathepsin D (Homo sapiens, UniProt P07339); test: Inhibition of cathepsin D activity (substrate peptide hydrolysis, MALDI-TOF); assay type: biochemical; conditions: pH 4.1, 37 degrees C., read-out: Cath D Ki
# Aβ production = test: Cellular Aβ IC50 determination (Aβ40 sandwich ELISA); assay type: cell-based; conditions: Cricetulus griseus, Chinese hamster ovary cells over-expressing human APP695 with London and Swedish mutations, 24 h
# Procedure: The potency of compounds against memapsin 2 activity was determined in a cellular assay of Aβ production. […] Chinese hamster ovary cells that over-express human APP695 with the London and Swedish mutations were seeded in multi-well plates at 10% confluency. Compounds were dissolved in DMSO to concentrations near 1 mM, and diluted into culture media to a final concentration near 4 μM (final 0.4% DMSO). Compounds were diluted serially and applied to cells in multi-well plates 48 h after seeding. Incubation was continued in 5% CO2 at 37 degrees C. for 24 h. Aliquots were removed and assayed for Aβ40 content using a sandwich ELISA (BioSource International). Amount of Aβ40 over the range of concentration of compounds, relative to control incubations, were fit to a 4-parameter IC50 model.
# Sequence of Cathepsin D (P07339 65-412, species assumed): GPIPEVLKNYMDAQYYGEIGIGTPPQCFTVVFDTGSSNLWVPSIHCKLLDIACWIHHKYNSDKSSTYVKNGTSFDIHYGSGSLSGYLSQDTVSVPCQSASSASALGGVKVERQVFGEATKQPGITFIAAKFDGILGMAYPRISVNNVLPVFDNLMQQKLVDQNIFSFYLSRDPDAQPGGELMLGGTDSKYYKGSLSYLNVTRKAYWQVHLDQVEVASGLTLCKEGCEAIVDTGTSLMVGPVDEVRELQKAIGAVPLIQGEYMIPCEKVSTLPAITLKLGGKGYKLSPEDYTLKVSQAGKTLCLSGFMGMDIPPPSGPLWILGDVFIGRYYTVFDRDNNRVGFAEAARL
# Sequence of memapsin 2 (P56817 46-501): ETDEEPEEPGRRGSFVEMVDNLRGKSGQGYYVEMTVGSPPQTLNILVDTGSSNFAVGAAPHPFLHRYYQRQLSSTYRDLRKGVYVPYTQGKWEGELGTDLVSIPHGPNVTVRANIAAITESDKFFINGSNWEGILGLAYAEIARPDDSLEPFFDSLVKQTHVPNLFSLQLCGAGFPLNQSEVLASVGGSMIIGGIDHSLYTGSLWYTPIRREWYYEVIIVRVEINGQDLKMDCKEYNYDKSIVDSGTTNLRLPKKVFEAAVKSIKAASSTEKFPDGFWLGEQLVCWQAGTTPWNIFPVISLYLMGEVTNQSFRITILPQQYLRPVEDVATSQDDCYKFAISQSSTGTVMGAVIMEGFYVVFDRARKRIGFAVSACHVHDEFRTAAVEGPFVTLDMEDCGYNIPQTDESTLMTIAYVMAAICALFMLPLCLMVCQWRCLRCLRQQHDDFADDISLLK
Ki (memapsin 2),Ki (memapsin 1),Ki (Cathepsin D),IC50 (Aβ production),SMILES
< 0.405 µM,< 0.405 µM,< 0.405 µM,,"CCCN(CCC)C(=O)c1cccc(C(=O)N[C@@H](CC(C)C)[C@@H](O)C[C@@H](C)C(=O)NC(C(=O)NCC(C)C)C(C)C)c1 (stereo in doubt) [N1-(5-hydroxy-8-(1-(isobutylamino)-3-methyl-1-oxobutan-2-ylamino)-2,7-dimethyl-8-oxooctan-4-yl)-N3,N3-dipropylisophthalamide]"
2 to 5 µM,0.405 to 2 µM,< 0.405 µM,,COc1ccc(C[C@H](NC(=O)c2cccc(C(=O)NCc3nc(C)cs3)c2)[C@@H](O)C[C@@H](C)C(=O)N[C@H](C(=O)NCC(C)C)C(C)C)cc1 [N1-(3-hydroxy-6-(1-(isobutylamino)-3-methyl-1-oxobutan-2-ylamino)-1-(4-methoxyphenyl)-5-methyl-6-oxohexan-2-yl)-N3-((4-methylthiazol-2-yl)methyl)isophthalamide]
> 5 µM,> 5 µM,2 to 5 µM,,"CC(C)CNC(=O)C(NC(=O)C(C)CC(O)C(CC(C)C)NC(=O)c1cccc(C(=O)N(C)Cc2nccn2C)c1)C(C)C (stereo not shown) [N1-(5-hydroxy-8-(1-(isobutylamino)-3-methyl-1-oxobutan-2-ylamino)-2,7-dimethyl-8-oxooctan-4-yl)-N3-methyl-N3-((1-methyl-1H-imidazol-2-yl)methyl)isophthalamide]"
< 0.405 µM,,,> 20 µM,"Cc1nc(CN(C)C(=O)c2cccc(C(=O)NC(CC(C)C)C(O)CC(C)C(=O)NC(C(=O)NCC(C)C)C(C)C)c2)co1 (stereo not shown) [N1-(5-hydroxy-8-(1-(isobutylamino)-3-methyl-1-oxobutan-2-ylamino)-2,7-dimethyl-8-oxooctan-4-yl)-N3-methyl-N3-((2-methyloxazol-4-yl)methyl)isophthalamide]"
< 0.405 µM,,,> 20 µM,"Cc1ccc(CN(C)C(=O)c2cccc(C(=O)NC(CC(C)C)C(O)CC(C)C(=O)NC(C(=O)NCC(C)C)C(C)C)c2)o1 (stereo not shown) [N1-(5-hydroxy-8-(1-(isobutylamino)-3-methyl-1-oxobutan-2-ylamino)-2,7-dimethyl-8-oxooctan-4-yl)-N3-methyl-N3-((5-methylfuran-2-yl)methyl)isophthalamide]"
0.405 to 2 µM,0.405 to 2 µM,,> 20 µM,"CC(C)CC(NC(=O)c1cc(C(=O)NC(C)c2ccccc2)cc(N(C)S(C)(=O)=O)c1)C(O)CC(C)C(=O)NC(C)C (stereo not shown) [N1-(5-hydroxy-8-(isopropylamino)-2,7-dimethyl-8-oxooctan-4-yl)-5-(N-methylmethylsulfonamido)-N3-(1-phenylethyl)isophthalamide]"
< 0.405 µM,,,> 20 µM,CC(C)CC(NC(=O)c1cc(C(=O)NC(C)c2ccccc2)cc(N(C)S(C)(=O)=O)c1)C(O)CC(N)C(=O)NC(C(=O)NC(C)C)C(C)C (stereo not shown) [N1-(7-amino-5-hydroxy-8-(1-(isopropylamino)-3-methyl-1-oxobutan-2-ylamino)-2-methyl-8-oxooctan-4-yl)-5-(N-methylmethylsulfonamido)-N3-(1-phenylethyl)isophthalamide]
< 0.405 µM,,,< 5 µM,CC(C)CC(NC(=O)c1cc(C(=O)NC(C)c2ccccc2)cc(N(C)S(C)(=O)=O)c1)C(O)CC(N=[N+]=[N-])C(=O)NC(C(=O)NC(C)C)C(C)C (stereo not shown) [N1-(7-azido-5-hydroxy-8-(1-(isopropylamino)-3-methyl-1-oxobutan-2-ylamino)-2-methyl-8-oxooctan-4-yl)-5-(N-methylmethylsulfonamido)-N3-(1-phenylethyl)isophthalamide]
< 0.405 µM,,,> 20 µM,"CC(C)CNC(=O)C(NC(=O)C(C)CC(O)C(CC(C)C)NC(=O)c1cccc(C(=O)N(C)Cc2ccccc2)c1)C(C)C (stereo not shown) [N1-benzyl-N3-(5-hydroxy-8-(1-(isobutylamino)-3-methyl-1-oxobutan-2-ylamino)-2,7-dimethyl-8-oxooctan-4-yl)-N1-methylisophthalamide]"
< 0.405 µM,,,< 5 µM,"CC(C)CNC(=O)C(NC(=O)C(C)CC(O)C(CC(C)C)NC(=O)c1cc(C(=O)NC2CCCC2)cc(N(C)S(C)(=O)=O)c1)C(C)C (stereo not shown) [N1-cyclopentyl-N3-(5-hydroxy-8-(1-(isobutylamino)-3-methyl-1-oxobutan-2-ylamino)-2,7-dimethyl-8-oxooctan-4-yl)-5-(N-methylmethylsulfonamido)isophthalamide]"
< 0.405 µM,,,< 5 µM,"CCN(Cc1nc(C)cs1)C(=O)c1cccc(C(=O)NC(CC(C)C)C(O)CC(C)C(=O)NC(C(=O)NCC(C)C)C(C)C)c1 (stereo not shown) [N1-ethyl-N3-(5-hydroxy-8-(1-(isobutylamino)-3-methyl-1-oxobutan-2-ylamino)-2,7-dimethyl-8-oxooctan-4-yl)-N1-((4-methylthiazol-2-yl)methyl)isophthalamide]"
2 to 5 µM,,> 5 µM,> 20 µM,"Cc1csc(CNC(=O)c2cccc(C(=O)N[C@@H](CC(C)C)[C@@H](O)C[C@@H](C)C(=O)N[C@H](C(=O)NCC(C)C)C(C)C)n2)n1 [N2-(5-hydroxy-8-(1-(isobutylamino)-3-methyl-1-oxobutan-2-ylamino)-2,7-dimethyl-8-oxooctan-4-yl)-N6-((4-methylthiazol-2-yl)methyl)pyridine-2,6-dicarboxamide]"
< 0.405 µM,,,> 20 µM,"Cc1csc(CN(C)C(=O)c2cccc(C(=O)NC(CC(C)C)C(O)CC(C)C(=O)NC(C(=O)NCC(C)C)C(C)C)n2)n1 (stereo not shown) [N2-(5-hydroxy-8-(1-(isobutylamino)-3-methyl-1-oxobutan-2-ylamino)-2,7-dimethyl-8-oxooctan-4-yl)-N6-methyl-N6-((4-methylthiazol-2-yl)methyl)pyridine-2,6-dicarboxamide]"
< 0.405 µM,,,5 to 10 µM,"Cc1csc(CN(C)C(=O)c2cncc(C(=O)NC(CC(C)C)C(O)CC(C)C(=O)NC(C(=O)NCC(C)C)C(C)C)c2)n1 (stereo not shown) [N3-(5-hydroxy-8-(1-(isobutylamino)-3-methyl-1-oxobutan-2-ylamino)-2,7-dimethyl-8-oxooctan-4-yl)-N5-methyl-N5-((4-methylthiazol-2-yl)methyl)pyridine-3,5-dicarboxamide]"
0.405 to 2 µM,,,> 20 µM,"CC(C)CNC(=O)C(NC(=O)C(C)CC(O)C(CC(C)C)NC(=O)c1cncc(C(=O)N(C)Cc2cccnc2)c1)C(C)C (stereo not shown) [N3-(5-hydroxy-8-(1-(isobutylamino)-3-methyl-1-oxobutan-2-ylamino)-2,7-dimethyl-8-oxooctan-4-yl)-N5-methyl-N5-(pyridin-3-ylmethyl)pyridine-3,5-dicarboxamide]"
0.405 to 2 µM,,,> 20 µM,"CC(C)CNC(=O)C(NC(=O)C(C)CC(O)C(CC(C)C)NC(=O)c1cc(C(=O)NC(C)c2ccccc2)cc(N(C)C(=O)OC2CCOC2)c1)C(C)C (stereo not shown) [tetrahydrofuran-3-yl 3-(5-hydroxy-8-(1-(isobutylamino)-3-methyl-1-oxobutan-2-ylamino)-2,7-dimethyl-8-oxooctan-4-ylcarbamoyl)-5-(1-phenylethylcarbamoyl)phenyl(methyl)carbamate]"

SMILES,Ki (memapsin 2),Ki (memapsin 1),Ki (Cathepsin D),IC50 (Aβ production)
"Cc1nc(C(C)NC(=O)c2cc(C(=O)NC(CC(C)C)C(O)CC(C)C(=O)NC(C(=O)NC(C)C)C(C)C)cc(N(C)S(C)(=O)=O)c2)c(C)o1 (stereo not shown) [N1-(1-(2,5-dimethyloxazol-4-yl)ethyl)-N3-(5-hydroxy-8-(1-(isopropylamino)-3-methyl-1-oxobutan-2-ylamino)-2,7-dimethyl-8-oxooctan-4-yl)-5-(N-methylmethylsulfonamido)isophthalamide]",< 0.405 µM,,0.405 to 2 µM,10 to 20 µM
"CCCNC(=O)c1cc(C(=O)NC(CC(C)C)C(O)CC(C)C(=O)NC(C(=O)NC(C)C)C(C)C)cc(N(C)S(C)(=O)=O)c1 (stereo not shown) [N1-(5-hydroxy-8-(1-(isopropylamino)-3-methyl-1-oxobutan-2-ylamino)-2,7-dimethyl-8-oxooctan-4-yl)-5-(N-methylmethylsulfonamido)-N3-propylisophthalamide]",< 0.405 µM,,0.405 to 2 µM,< 5 µM
"Cc1nc(CNC(=O)c2cc(C(=O)NC(CC(C)C)C(O)CC(C)C(=O)NC(C(=O)NC(C)C)C(C)C)cc(N(C)S(C)(=O)=O)c2)c(C)o1 (stereo not shown) [N1-((2,5-dimethyloxazol-4-yl)methyl)-N3-(5-hydroxy-8-(1-(isopropylamino)-3-methyl-1-oxobutan-2-ylamino)-2,7-dimethyl-8-oxooctan-4-yl)-5-(N-methylmethylsulfonamido)isophthalamide]",< 0.405 µM,,< 0.405 µM,< 5 µM
